Measured values as given in US20210338648A1, “METHODS AND COMPOSITIONS FOR REDUCING SERUM URIC ACID” (AstraZeneca AB, priority 2018, published 2021).
“Also recorded” adds a separate entry of the source.

Tests used:
[1] = Phase 2 crossover study: safety and tolerability (adverse events, serum creatinine, serum sodium); format: in vivo, human; conditions: Grp1 vs Grp2
Excerpt: Thirty-six asymptomatic hyperuricemic patients aged 18 to 65 years (inclusive) were enrolled into this study at two study centers. Twenty-four patients were enrolled and completed the study. Due to inadequate urine sampling, 12 additional patients were included to ensure an adequate sample size (at least 20 evaluable patients) to evaluate the effects of intensive UA lowering with verinurad, febuxostat and dapagliflozin on urinary excretion of UA. With 24 completers available during the interim analysis, this will provide for a total sample size of 36 evaluable patients. […] At screening: One sUA assessment. […] On Treatment Period 1 and 2: […] On Treatment Period 1 and 2: […] Systolic blood pressure [SBP] […] Diastolic blood pressure [DBP]

[2] = co-administration, Day 7
Experimental: This study was a randomized, placebo controlled, double-blind, 2-way crossover study conducted on asymptomatic hyperuricemic patients.
On Day −2 of Treatment period 1, patients were randomized (1:1) to 1 of 2 treatment sequences (AB or BA). […] On Day 1, after all dosing and all assessments were performed, patients received instruction to administer the IMP at home once daily in the morning from Day 2 to Day 6 and the IMP dispensed for home dosing. Patients returned to the Clinical Unit on Day 6 and were residential in the Clinical Unit from Day 6 to Day 8.

[3] = Phase 2 crossover study: urinary excretion of uric acid (uUA); format: in vivo, human
Excerpt: Thirty-six asymptomatic hyperuricemic patients aged 18 to 65 years (inclusive) were enrolled into this study at two study centers. Twenty-four patients were enrolled and completed the study. Due to inadequate urine sampling, 12 additional patients were included to ensure an adequate sample size (at least 20 evaluable patients) to evaluate the effects of intensive UA lowering with verinurad, febuxostat and dapagliflozin on urinary excretion of UA. With 24 completers available during the interim analysis, this will provide for a total sample size of 36 evaluable patients. Before any study specific assessments were performed, potential patients provided informed consent. Each patient underwent the below mentioned visits: • A Screening period of maximum 28 days; • Two treatment periods during which patients were resident in the Clinical Unit from Day −2 to Day 1 and from Day 6 to Day 8; and • A Follow-up Visit within 14 to 28 days after the first administration of Investigational Medicinal Product (IMP) in Treatment Period 2. […] Treatment Period 1 and Treatment Period 2 were separated by a washout period of 7 to 21 days. • 1.

[4] = Phase 2 crossover study: serum uric acid (sUA) after 7 days of treatment; format: in vivo, human; conditions: dapagliflozin added to verinurad + febuxostat; D7
Excerpt: Thirty-six asymptomatic hyperuricemic patients aged 18 to 65 years (inclusive) were enrolled into this study at two study centers. Twenty-four patients were enrolled and completed the study. Due to inadequate urine sampling, 12 additional patients were included to ensure an adequate sample size (at least 20 evaluable patients) to evaluate the effects of intensive UA lowering with verinurad, febuxostat and dapagliflozin on urinary excretion of UA. With 24 completers available during the interim analysis, this will provide for a total sample size of 36 evaluable patients.
• 1. […] At screening: One sUA assessment. […] Area under plasma concentration time curve over a dosing interval (24 hours) (AUCτ) assessment for verinurad and its main metabolites, febuxostat, and dapagliflozin [Time Frame: On Treatment Period 1 and 2: Day 7 (Pre-dose and 15 minutes, 30 minutes, 1 hour, 1.5, 2, 3, 4, 8, 12 and 24 hours post-dose)] • To assess AUCT after administration of single oral fixed dose of verinurad+febuxostat+dapagliflozin/placebo • 3. […]

- effect on febuxostat pharmacokinetics [2]: did not affect
- effect on verinurad pharmacokinetics [2]: did not affect
- total 24 h uUA excretion (result in words) ([3]; dapagliflozin added to verinurad + febuxostat vs placebo, 24 h urine, all subjects): no difference
SMILES: CCOc1ccc(Cc2cc([C@@H]3O[C@H](CO)[C@@H](O)[C@H](O)[C@H]3O)ccc2Cl)cc1 [dapagliflozin]
- serum creatinine (sCr), between-group difference [1]: without an increase in uUA excretion, or changes in sCr
- peak uUA excretion (result in words) ([3]; dapagliflozin 10 mg/day added to verinurad 9 mg/day + febuxostat 80 mg/day, D7): no increase; also recorded: without an increase in uUA excretion
- sUA levels (result in words) [4]: significantly reduced; also recorded: additional sUA lowering
